Measurements as given in patent US10863742B2, “Herbicide combinations” (Bayer CropScience Aktiengesellschaft, priority 2016, dated 2020).

Columns and labels:
Assay in all cases: Greenhouse early post-emergence weed control trial
Format in all cases: in vivo
[1] = system: Lamium purpureum (LAMPU); conditions: 480 h, visual weed control 20 DAA, scale 0-100, early post-emergence BBCH 10-11, g ai/ha: diflufenican 50, pyroxasulfone 25, metribuzin 50, combination 50 + 25 + 50, read-out: % Efficacy against various weeds, LAMPU
Experimental: (§1) The following data are the results of a greenhouse investigation in which the herbicide combination according to the present invention was tested against various monocotyledonous and dicotyledonous weeds after an early-post emergence application (BBCH 10-11).
(§2) For this early post-emergent trial seeds of the above mentioned species were sown in 7 cm jiffy pots containing standard soil (14.7% sand, 19.9% clay, 65.4% silt and 1.8% organic matter) covered with 0,5 cm depth of sandy soil and lightly irrigated from above. The pots were placed in a glasshouse (with conditions of 16 hour day and 8 hour night, 21° C. day and 12° C. night and 60% relative humidity) and irrigated from above to allow the seeds to germinate and grow. Once they had reached the required growth stage BBCH 10-11 the propagated plants were treated with the herbicides. The herbicides were applied in a spray volume of 300 l water/ha using a flat fan nozzle XR 8001 at a pressure of 1.8 bar. After the application and air drying the pots were placed back into the glasshouse and allowed to grow on. The pots were irrigated via flood irrigation as required for good plant growth.
(§3) Visual percent of weed control (4 replicates) was rated 20 days after herbicide applications (DAA) on a scale of 0-100. A rating of 0 is defined as no control and 100 as complete control.
(§4) According to Colby synergistic effects of herbicidal active ingredients are indicated if the measured efficacy is higher than the expected one calculated according to his formula for 3-way mixtures: E=(A+B+C)−(A×B+A×C+B×C)/100+(A×B×C)/10000

[2] = system: Lolium rigidum (LOLRI); conditions: 480 h, visual weed control 20 DAA, scale 0-100, early post-emergence BBCH 10-11, g ai/ha: diflufenican 50, pyroxasulfone 25, metribuzin 50, combination 50 + 25 + 50, read-out: % Efficacy against various weeds, LOLRI
Experimental: as §1, §2, §3, §4

[3] = system: Matricaria inodora (MATIN); conditions: Tripleurospermum inodorum, 480 h; visual weed control 20 DAA, scale 0-100, early post-emergence BBCH 10-11; g ai/ha: diflufenican 50, pyroxasulfone 25, metribuzin 50, combination 50 + 25 + 50; read-out: % Efficacy against various weeds, MATIN
Experimental: as §1, §2, §3, §4

[4] = system: Pharbitis purpurea (PHBPU); conditions: Ipomoea purpurea, 480 h; visual weed control 20 DAA, scale 0-100, early post-emergence BBCH 10-11; g ai/ha: diflufenican 50, pyroxasulfone 25, metribuzin 50, combination 50 + 25 + 50; read-out: % Efficacy against various weeds, PHBPU
Experimental: as §1, §2, §3, §4

[5] = system: Polygonum convolvulus (POLCO); conditions: Fallopia convolvulus, 480 h; visual weed control 20 DAA, scale 0-100, early post-emergence BBCH 10-11; g ai/ha: diflufenican 50, pyroxasulfone 25, metribuzin 50, combination 50 + 25 + 50; read-out: % Efficacy against various weeds, POLCO
Experimental: as §1, §2, §3, §4

[6] = system: Veronica persica (VERPE); conditions: 480 h, visual weed control 20 DAA, scale 0-100, early post-emergence BBCH 10-11, g ai/ha: diflufenican 50, pyroxasulfone 25, metribuzin 50, combination 50 + 25 + 50, read-out: % Efficacy against various weeds, VERPE
Experimental: as §1, §2, §3, §4

| Compound | Emax [1] [%] | Emax [2] [%] | Emax [3] [%] | Emax [4] [%] | Emax [5] [%] | Emax [6] [%] |
| --- | --- | --- | --- | --- | --- | --- |
| Cn1nc(C(F)(F)F)c(CS(=O)(=O)C2=NOC(C)(C)C2)c1OC(F)F [Pyroxasulfon, pyroxasulfone] | 5 | 29 | 5 | 10 | 0 | 5 |
| CSc1nnc(C(C)(C)C)c(=O)n1N [Metribuzin, metribuzin] | 95 | 6 | 59 | 5 | 1 | 70 |
| O=C(Nc1ccc(F)cc1F)c1cccnc1Oc1cccc(C(F)(F)F)c1 [Diflufenican, diflufenican] | 10 | 2 | 1 | 18 | 13 | 18 |
